Results on 12 compounds are retold here after ChEMBL document CHEMBL1949614, “Advent of Imidazo[1,2-a]pyridine-3-carboxamides with Potent Multi- and Extended Drug Resistant Antituberculosis Activity” (ACS Med Chem Lett, 2011).

pIC50: −log10 of the molar value. In brackets after ≈: the same amount, converted by molar mass. Activity calls are given as the source filed them.

Series [1] concerns Mycobacterium tuberculosis. In words: microbe, parasite or virus in culture. The settings on record: H37Rv ATCC 27294, 168 h.
Description: Antituberculosis activity against Mycobacterium tuberculosis H37Rv ATCC 27294 in GAST medium after 1 week by microplate alamar blue assay
Series [2] has as its system Vero. Description: Cytotoxicity against african green monkey Vero cells after 72 hrs. It counts as cell-based. To be noted: Chlorocebus sabaeus.
Series [3] concerns Candida albicans. In words: Antifungal activity against Candida albicans. It is filed as functional.
Series [4] relates to Staphylococcus aureus. Description: Antibacterial activity against Staphylococcus aureus. It is filed as functional.
Series [5] is described as follows: Cmax in Sprague-Dawley rat at 10 mg/kg, po. It is filed as ADME, organism-based. Also on record: dose 10 mg/kg, route oral. To be noted: in vivo.
In series [6] the test system is Rattus norvegicus. In words: Oral bioavailability in Sprague-Dawley rat at 10 mg/kg. It is filed as ADME, organism-based. The settings on record: in vivo.
Series [7] in a line: Half life in Sprague-Dawley rat at 1 mg/kg, iv. Also noted: dose 1 mg/kg, route intravenous. It is filed as ADME, organism-based. The settings on record: in vivo.
Series [8] concerns Mycobacterium tuberculosis. Description: microbe, parasite or virus in culture. The settings on record: H37Rv ATCC 27294, 168 h. This is another data set of the same source.
Description: Antituberculosis activity against Mycobacterium tuberculosis H37Rv ATCC 27294 in GAS medium after 1 week by microplate alamar blue assay
In series [9] the test system is Mycobacterium tuberculosis. Description: microbe, parasite or virus in culture. To be noted: H37Rv ATCC 27294, 168 h. The source holds these as a separate data set.
Description: Antituberculosis activity against Mycobacterium tuberculosis H37Rv ATCC 27294 in 7H12 medium after 1 week by microplate alamar blue assay
Series [10] can be described thus: Clearance in Sprague-Dawley rat at 1 mg/kg, iv. To be noted: in vivo. It counts as ADME, organism-based. Also noted: dose 1 mg/kg, route intravenous.
A short description of series [11]: in vivo. To be noted: Sprague-Dawley, rat, po, 10 mg/kg.
Series [12] in a line: Drug metabolism in rat liver microsomes at 1 mM after 30 mins by LC/MS analysis. It is filed as ADME, Microsome. The settings on record: read-out: Drug metabolism. (In general: Microsomes from liver hold many membrane-bound enzymes, among them those of drug oxidation.)
In series [13] the test system is Escherichia coli. In words: Antimicrobial activity against Escherichia coli. It counts as functional.
The subject of series [14] is Mycobacterium tuberculosis. Description: Antitubercular activity against non-replicating Mycobacterium tuberculosis H37Rv expressing vibrio harveyii luciferase gene incubated 10 days under anaerobic condition measured after 28 hrs of recovery in aerobic condition by luciferase based low oxygen recovery assay.
The nature of series [15]: Aqueous solubility of the compound in PBS buffer at pH 7.4. It counts as physicochemical.
A short description of series [16]: Drug metabolism in human liver microsomes at 1 mM after 30 mins by LC/MS analysis. It is filed as ADME, Microsome. The settings on record: read-out: Drug metabolism.
The subject of series [17] is Mycolicibacterium smegmatis. In words: Antimicrobial activity against Mycobacterium smegmatis by microbroth dilution assay. It counts as functional. In general terms: Broth dilution looks for growth in wells or tubes with falling amounts of substance.
Series [18] deals with Mycobacterium avium. Description: Antimicrobial activity against Mycobacterium avium by microbroth dilution assay. It counts as functional.
The test system of series [19] is Mycobacterium kansasii. Description: Antimicrobial activity against Mycobacterium kansasii by microbroth dilution assay. It is filed as functional.
Series [20] has as its system Mycobacterium tuberculosis. In words: Antitubercular activity against Mycobacterium tuberculosis assessed as up-regulation of cytochrome bd oxidase at 0.1 to 10 ug/mL after 6 hrs. It counts as functional, organism-based.
Series [21] deals with Mycobacterium tuberculosis. In words: Antitubercular activity against Mycobacterium tuberculosis assessed as up-regulation of phosphoenolpyruvate carboxykinase at 0.1 to 10 ug/mL after 6 hrs. It counts as functional, organism-based.
In series [22] the test system is Mycobacteroides chelonae. In words: Antimicrobial activity against Mycobacterium chelonae by microbroth dilution assay. It counts as functional.
A short description of series [23]: Half life in rat liver microsomes at 1 mM by LC/MS analysis. It counts as ADME, Microsome.
The test system of series [24] is Mycobacterium tuberculosis. In words: microbe, parasite or virus in culture. To be noted: H37Rv.
Description: Antimicrobial activity against Mycobacterium tuberculosis H37Rv by microbroth dilution assay
Series [25] deals with Mycobacteroides abscessus. In words: Antimicrobial activity against Mycobacterium abscessus by microbroth dilution assay. It counts as functional.
The subject of series [26] is Mycobacterium marinum. Description: Antimicrobial activity against Mycobacterium marinum by microbroth dilution assay. It is filed as functional.

`Cc1ccn2c(C(=O)Nc3ccccc3)c(C)nc2c1`: the MIC90 in series [1] is above 128 µM.
The pIC50 is the negative decadic logarithm of the IC50, by convention in mol/L. By MIC is commonly meant the lowest concentration found to suppress growth. Broadly, the Cmax is the maximum level reached in the sampled fluid or tissue. For orientation: half-life means the time needed for the level to fall by half in the phase considered. The term clearance denotes the rate of elimination divided by the concentration. One may read the Tmax as the time at which the peak concentration occurs. By solubility is commonly meant the dissolved amount per volume that the medium holds. Regarding `COc1ccc(CNC(=O)c2c(C)nc3cc(C)ccn23)cc1`, the pIC50 in series [2] was below 3.89. Besides, the MIC in series [3], in series [4] and in [13] was above 128 µM each time. This compound also showed a Cmax in [5] of 5740 ng/mL. Also, the F in series [6] amounted to 50%. This compound gave a half-life in [7] of 16.8 min. For the same compound, the MIC90 in [8] is 0.51 µM (≈ 0.158 µg/mL); in [9] it was 1.35 µM (≈ 0.418 µg/mL); in series [1], 0.5 µM (≈ 0.155 µg/mL); in [14] it was 10.5 µM (≈ 3.25 µg/mL). Besides, the clearance in series [10] worked out at 28 mL/min/kg. In [11], the Tmax was 15 min. Also, the metabolised at 0.5 h turned out to be 69% in [12] and 30% in [16]. The same compound came in with a solubility in series [15] of 148 µM (≈ 45.8 µg/mL).
On to `Cc1ccn2c(C(=O)NCc3cccc(F)c3)c(C)nc2c1`, for which, in series [2], the pIC50 is below 3.89. Also, the MIC in series [3], in [4] and in series [13] was above 128 µM each time. The MIC90 in [8] is 0.29 µM (≈ 0.0862 µg/mL); in series [9], 1.98 µM (≈ 0.589 µg/mL); in [1] it was 0.38 µM (≈ 0.113 µg/mL); in series [14] it was 40.1 µM (≈ 11.9 µg/mL).
In series [2], `O=[N+]([O-])c1cn2c(n1)OC[C@@H](OCc1ccc(OC(F)(F)F)cc1)C2` [PRETOMANID] had a pIC50 below 3.89. For the same compound, the MIC90 was 0.31 µM (≈ 0.111 µg/mL) in [8], 0.47 µM (≈ 0.169 µg/mL) in [9], 0.21 µM (≈ 0.0754 µg/mL) in [1] and 4.9 µM (≈ 1.76 µg/mL) in series [14].
With `Cc1ccn2c(C(=O)NCc3ccc(Cl)cc3)c(C)nc2c1`, in [2], the pIC50 was below 3.89. Further, the MIC in series [3], in series [4] and in [13] was above 128 µM in each case. Besides, the peak level in series [5] (Cmax) was 2000 ng/mL. Moreover, the F in [6] is given as 49%. The compound also gave a half-life in series [7] of 24 min. In addition, the MIC90 in series [8] turned out to be 0.5 µM (≈ 0.157 µg/mL); in [9] it was 1.94 µM (≈ 0.609 µg/mL); in series [1], 0.51 µM (≈ 0.16 µg/mL); in series [14], 28 µM (≈ 8.79 µg/mL). This compound yielded a clearance in series [10] of 51 mL/min/kg. Besides, the Tmax in series [11] stood at 18.6 min. Moreover, the metabolised at 0.5 h in series [12] was determined as 79%; in [16] it was 82%. In [15], this compound registered a solubility of 25 µM (≈ 7.84 µg/mL).
`Cc1ccn2c(C(=O)NCc3ccc(Cl)c(Cl)c3)c(C)nc2c1`: the values for the MIC90 in [8] and in [1] were 9.3 µM (≈ 3.24 µg/mL) and 14.4 µM (≈ 5.01 µg/mL), respectively.
In series [2], `Cc1ccn2c(C(=O)NCc3ccccc3)c(C)nc2c1` showed a pIC50 below 3.89. The MIC90 is above 50 µM in series [17]; 1.32 µM (≈ 0.369 µg/mL) in series [18]; 1.32 µM (≈ 0.369 µg/mL) in series [19]; above 50 µM in [22]; 0.37 µM (≈ 0.103 µg/mL) in series [8]; 1.9 µM (≈ 0.531 µg/mL) in [9]. Also, the MIC90 in series [1] was 0.69 µM (≈ 0.193 µg/mL); in series [14], 53.6 µM (≈ 15 µg/mL); in series [24], 1.07 µM (≈ 0.299 µg/mL); in series [25] it was above 50 µM; in [26], above 50 µM. In addition, the MIC in series [3], in series [4] and in series [13] was above 128 µM throughout. Also, the outcome in [20] and in series [21] was Active. For the same compound, in series [5], the Cmax is 3010 ng/mL. In series [6], the F is reported as 76%. The half-life is 21 min in [7] and 19 min in series [23]. This compound also had a clearance in series [10] of 91 mL/min/kg. Also, in [11], the time of peak concentration (Tmax) is 15 min. The metabolised at 0.5 h is 71% in series [12] and 59% in series [16]. For the same compound, the solubility in [15] was determined as 181 µM (≈ 50.6 µg/mL).
The compound `COc1ccccc1CNC(=O)c1c(C)nc2cc(C)ccn12` gave a negative-log IC50 (pIC50) in series [2] below 3.89. Besides, the MIC90 in [8] is 2.8 µM (≈ 0.866 µg/mL); in series [1], 1.9 µM (≈ 0.588 µg/mL).
Taken in the same sequence, the figures for `Cc1ccc(CNC(=O)c2c(C)nc3cc(C)ccn23)cc1` were 4.26, 0.51 µM (≈ 0.15 µg/mL) and 0.8 µM (≈ 0.235 µg/mL).
In series [2], `COc1cccc(CNC(=O)c2c(C)nc3cc(C)ccn23)c1` had a pIC50 below 3.89. Moreover, the MIC in series [3], in series [4] and in [13] was above 128 µM throughout. The compound further yielded a Cmax in [5] of 3140 ng/mL. This compound also gave a half-life in [7] of 19.8 min. Further, the MIC90 in [8] worked out at 1.2 µM (≈ 0.371 µg/mL); in [9], 5.9 µM (≈ 1.83 µg/mL); in [1] it was 1 µM (≈ 0.309 µg/mL); in [14] it was 31.4 µM (≈ 9.71 µg/mL). Besides, in series [10], the clearance turned out to be 43 mL/min/kg. The Tmax in [11] turned out to be 15 min. The metabolised at 0.5 h in [12] is 80%; in series [16] it was 47%. For the same compound, the solubility in [15] is 149 µM (≈ 46.1 µg/mL).
In [2], `COc1cccc(CNC(=O)c2c(C)nc3ncc(C)cn23)c1` showed a pIC50 of 4.05. For the same compound, the MIC90 in series [17] is above 50 µM; in [18] it was 12 µM (≈ 3.72 µg/mL); in series [19], 12 µM (≈ 3.72 µg/mL); in [22], above 50 µM; in series [9] it was 0.48 µM (≈ 0.149 µg/mL); in series [1], 0.1 µM (≈ 0.031 µg/mL). Besides, the MIC90 in series [14] is above 10 µM; in series [24] it was 5.94 µM (≈ 1.84 µg/mL); in [25], above 50 µM; in series [26], above 50 µM. The MIC in series [3], in [4] and in [13] was above 128 µM each time.
In the case of `CO[C@H]1/C=C/O[C@@]2(C)Oc3c(C)c(O)c4c(O)c(c(/C=N/N5CCN(C)CC5)c(O)c4c3C2=O)NC(=O)/C(C)=C\C=C\[C@H](C)[C@H](O)[C@@H](C)[C@@H](O)[C@@H](C)[C@H](OC(C)=O)[C@@H]1C` [RIFAMPIN], in series [2], the pIC50 is 3.95. Further, the MIC90 was 162 µM (≈ 134 µg/mL) in series [17]; below 0.78 µM in series [18]; below 0.78 µM in series [19]; 150 µM (≈ 123 µg/mL) in series [22]; 0.8 µM (≈ 0.658 µg/mL) in series [8]; 0.07 µM (≈ 0.0576 µg/mL) in series [9]. For the same compound, the MIC90 is 0.2 µM (≈ 0.165 µg/mL) in series [1], 0.05 µM (≈ 0.0411 µg/mL) in [24], 162 µM (≈ 134 µg/mL) in series [25] and below 0.78 µM in series [26].
